Marks after values point to notes of the source that are not given here.
Key:
human MIP-1α = molecular target: T1, human MIP-1α (Homo sapiens, UniProt P10147); assay: MIP-1α induced migration of DMSO treated U937 cells (chemotaxis); format: cell-based; conditions: MIP-1α 40 ng/ml
T1 sequence (P10147 24-92): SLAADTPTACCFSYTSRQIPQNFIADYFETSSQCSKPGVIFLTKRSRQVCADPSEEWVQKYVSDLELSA
Protocol: DMSO treated U937 cells were used to examine the cell migration in response to MIP-1α. U937 cells are a promonocytic human cell line originally derived from the pleural effusion of a patient with histiocytic lymphoma. These cells were treated with DMSO (1.2%) for 4 days before being used in chemotaxis experiments. The chemotaxis assays were performed in 96-well Costar chemotaxis plates and human MIP-1α (+/−inhibitor) was added to the bottom chamber and the DMSO treated U937 cells in RPMI/HEPES were added to the top chamber and the plate was incubated at 37° C. for 3 hour to allow cells to move from the top chamber into the bottom. The number of cells migrating into the bottom chamber was quantified by labeling with AQUEOUS ONE (30 μl/well) for 1 hour before absorbance at 490 nm is read. MIP-1α was used at a final concentration of 40 ng/ml and the inhibitors were the sulfated xylan pentasaccharide (10 and 50 μg/ml) and PPS (10 and 50 μg/ml). It is clear from these experiments that both PPS and the sulfated xylan pentasaccharide inhibited MIP-1α stimulated cell movement.

[1] = tested on: Guinea-pigs sensitized to ovalbumin; assay: Guinea pig model of asthma, airway hyper-reactivity 24 h after OVA challenge; format: in vivo; conditions: for Cdyn, % increase from that of the positive control / RL, % decrease from that of the positive control: Dexamethasone 15 mg/kg, glycan compounds 10 mg/kg, intratracheal microspray
Protocol: A guinea pig model of asthma was used. Guinea-pigs (8 per group) were sensitized to ovalbumin by two intraperitoneal injections of ovalbumin (grade V, 20 μg) in aluminium hydroxide gel on Days 1 and 11. On day 20 (24 hours prior to assessing airway hyper-reactivity (AHR)) each animal received a challenge dose of OVA—this took the form of a 1 hour aerosol exposure of OVA (10 μg). The negative control animals received, no sensitization and no challenge. The positive controls were sensitized and challenged but were either given no further treatment or were treated with vehicle (saline). Test compounds (PPS and the sulfated xylan pentasaccharide) and vehicle were administered by intratracheal administration as an aqueous microspray using a Penn Century device. The device used was the FMJ250 high pressure syringe and a 1A-1C microspray delivery tube. The particle size delivery goes up to 32 μm. During the study the volume delivered was 100 ul for all test formulations. The test compounds were administered 30 min before challenge with OVA. The animals underwent surgery 24 hours after challenge to insert a cannula into the trachea, the cannula was connected to the instrumentation which measured pressure and changes in airflow. After surgery the animals were allowed to stabilize for 10 min before baseline readings were taken. Bronchoconstriction was evoked with aerosolized methacholine (10 mg/ml and 30 mg/ml) for 20 seconds. The difference between baseline readings and that obtained after methacholine were used to calculate Cdyn and RL. Thus, measurements of lung function were taken approximately 25 hours after the drug was administered. Both pentosan polysulfate and the sulfated xylan pentasaccharide when administered at 10 mg/kg were effective in reducing the airway hyper-reactivity readings. Their efficacy was approximately equivalent to that usually seen with 7.5 mg/kg of dexamethasone in this model.

[2] = molecular target: T2, recombinant human eotaxin (CCL11) (Homo sapiens, UniProt P51671); assay: BIAcore inhibition of eotaxin-1 binding to immobilized heparin; conditions: BIAcore chip, FIG. 3D
T2 construct: host or cells: E. coli
Excerpt: (§1) The optical phenomenon of surface plasmon resonance is used to monitor physical interactions between molecules. Passing a solution of a potential protein ligand (e.g. IL-4, IL-5 or eotaxin) over a sensor surface to which a target (e.g. heparin) is coupled monitors the real-time binding of protein ligands to the immobilized target. Detection is achieved by measuring refractive index changes very close to the sensor surface. When the refractive index is altered, the angle at which plasmon resonance occurs changes and this change directly correlates with the amount of protein interacting with the surface. A BIAcore 2000 is conveniently used. […]
(§2) Biotinylated heparin is immobilized on the biosensor chip. […] Solutions containing potential protein ligands of interest are injected over the sensor chip surface, and the binding is measured in real time (Fernig, In: Proteoglycan protocols, Ed. R. V. Iozzo, Humana Press, Totowa, N.J., USA, 2001). Baculovirus expressed recombinant human IL-4 (rhIL-4) and baculovirus expressed recombinant human IL-5 (rhIL-5) readily bind to heparin immobilized by this method (see PCT/AU2005/000551). […] Similarly, recombinant human eotaxin (CCL11) expressed in E. coli binds readily to immobilized heparin and binding is specific as there is little eotaxin binding to sensor chips lacking heparin. […]

[3] = molecular target: T3, recombinant human IL-4 (rhIL-4) (Homo sapiens, UniProt P05112); assay: BIAcore inhibition of IL-4 binding to immobilized heparin; conditions: BIAcore chip, titration, FIG. 3A
T3 construct: made in house; host or cells: baculovirus expression system
T3 sequence (P05112 25-153): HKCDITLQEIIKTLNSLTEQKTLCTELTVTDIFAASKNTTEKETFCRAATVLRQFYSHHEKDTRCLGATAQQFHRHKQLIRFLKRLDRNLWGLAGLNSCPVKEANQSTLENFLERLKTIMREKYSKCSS
Excerpt: as §1, §2

Inhibition of MIP-1α stimulated cell movement (human MIP-1α; 10 μg/ml): 48%
Inhibition of MIP-1α stimulated cell movement (human MIP-1α; 50 μg/ml): 69%
IC50 [2]: ~15 nM
IC50 [3]: 25 to 80 nM
Substance: Pentosan polysulfate [PPS]
Reduction of airway hyper-reactivity readings (in words) ([1]; 10 mg/kg intratracheal microspray 30 min before OVA challenge): effective
Cdyn, % increase from that of the positive control ([1]; MCh 10 mg/ml): 38% *
RL, % decrease from that of the positive control ([1]; MCh 10 mg/ml): 32%
Cdyn, % increase from that of the positive control ([1]; MCh 30 mg/ml): 49% **
RL, % decrease from that of the positive control ([1]; MCh 30 mg/ml): 35% **
